Measured values taken from patent US20060069132A1, “Azolecarboxamide herbicides” (priority 2004, published 2006).

Legend:
morningglory [1] = assay: Test A pre-/postemergence herbicide test; format: in vivo, Ipomoea spp.
In short: (§1)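 Pre: seeded sandy loam, directed soil spray, compound in non-phytotoxic solvent + surfactant. Post: 1–2-leaf plants (2–10 cm), sprayed to runoff. Greenhouse ~10 d; visual injury vs untreated, 0–100 scale.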

lambsquarters = assay: Test B pre-/postemergence herbicide test; format: in vivo, Chenopodium album; details: for Lambsquarters plant response rating: postemergence
In short: (§2)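 Greenhouse pot assay with simultaneous preemergence (treated seed) and postemergence (2–18 cm seedlings) applications of surfactant-containing, non-phytotoxic solvent formulations. Response scored visually 13–15 days later on a 0–100 scale, 100 meaning complete control.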

giant foxtail [2] = assay: Test A pre-/postemergence herbicide test; format: in vivo, Setaria faberi
In short: as §1

corn = assay: Test B pre-/postemergence herbicide test; format: in vivo, Zea mays; details: for Corn plant response rating: postemergence
In short: as §2

cocklebur = assay: Test B pre-/postemergence herbicide test; format: in vivo, Xanthium strumarium; details: for Cocklebur plant response rating: postemergence
In short: (§3)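 Test chemicals in a non-phytotoxic solvent mixture with surfactant were applied preemergence to seeded species and postemergence to plants 2-18 cm tall (1- to 4-leaf stage); rice and barnyardgrass were also tested in a flooded paddy at the 2-leaf stage. Visual rating versus controls after 13-15 days in greenhouse, scale 0 (no effect) to 100 (complete control).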

Surinam grass = assay: Test B pre-/postemergence herbicide test; format: in vivo, Urochloa decumbens; details: for Surinam Grass plant response rating: postemergence
In short: as §2

wild oat = assay: Test B postemergence herbicide test; format: in vivo, Avena fatua; details: postemergence
In short: (§4)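 Read-out: visual comparison with controls, scored 0 to 100, where 100 means complete control and 0 no effect. Formulated chemicals were applied postemergence to plants 2–18 cm tall (1- to 4-leaf), or to flooded-paddy plants at the 2-leaf stage, then held 13 to 15 days under glass.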

rice [3] = assay: Test B flooded paddy test; format: in vivo, Oryza sativa; details: 1000 g ai/ha, scale 0 to 100 (0 no effect, 100 complete control)
In short: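 Greenhouse test; postemergence application to plants at 1–4 leaves (2–18 cm); paddy species at 2 leaves; evaluated visually vs controls at 13–15 days; scale 0–100 (100 = complete control).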

barnyardgrass [4] = assay: Test B pre-/postemergence herbicide test; format: in vivo, Echinochloa crus-galli; details: for Barnyardgrass plant response rating: postemergence
In short: as §3

large crabgrass [5] = assay: Test A pre-/postemergence herbicide test; format: in vivo, Digitaria sanguinalis
In short: as §1

ducksalad = assay: Test B flooded paddy test; format: in vivo, Heteranthera limosa; details: 1000 g ai/ha, scale 0 to 100 (0 no effect, 100 complete control)
In short: (§5)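 Paddy species grown to the 2-leaf stage under flooding; blackgrass sprayed postemergence at 2–18 cm (1- to 4-leaf stage). Plants kept in a greenhouse for 13 to 15 days, then visually rated against controls on 0 (no effect) to 100 (complete control).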

morningglory [6] = assay: Test B pre-/postemergence herbicide test; format: in vivo, Ipomoea coccinea; details: for Morningglory plant response rating: postemergence
In short: as §3

velvetleaf [7] = assay: Test A pre-/postemergence herbicide test; format: in vivo, Abutilon theophrasti
In short: as §1

large crabgrass [8] = assay: Test B pre-/postemergence herbicide test; format: in vivo, Digitaria sanguinalis; details: for Crabgrass, Large plant response rating: postemergence
In short: as §2

pigweed = assay: Test B pre-/postemergence herbicide test; format: in vivo, Amaranthus retroflexus; details: for Pigweed plant response rating: postemergence
In short: as §2

[9] = tested on: small flower umbrella sedge; assay: Test B flooded paddy test; format: in vivo, Cyperus difformis; details: 1000 g ai/ha, scale 0 to 100 (0 no effect, 100 complete control)
In short: as §5

wheat = assay: Test B postemergence herbicide test; format: in vivo, Triticum aestivum; set-up: key to Wheat plant response rating: 0 = no effect, 100 = complete control; details: postemergence
In short: as §4

velvetleaf [10] = assay: Test B pre-/postemergence herbicide test; format: in vivo, Abutilon theophrasti; details: for Velvetleaf plant response rating: postemergence
In short: as §2

giant foxtail [11] = assay: Test B pre-/postemergence herbicide test; format: in vivo, Setaria faberi; details: for Foxtail, Giant plant response rating: postemergence
In short: as §2

redroot pigweed = assay: Test A pre-/postemergence herbicide test; format: in vivo, Amaranthus retroflexus
In short: as §1

blackgrass = assay: Test B postemergence herbicide test; format: in vivo, Alopecurus myosuroides; details: postemergence
In short: as §5

rice [12] = assay: Test B pre-/postemergence herbicide test; format: in vivo, Oryza sativa; details: 0 = no effect, 100 = complete control, preemergence
In short: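 Species tested were Echinochloa crus-galli, Ipomoea coccinea, Xanthium strumarium and Oryza sativa, treated both before emergence and at the 1- to 4-leaf stage; rice and barnyardgrass were also tested under flooding at 2 leaves. Greenhouse incubation lasted 13–15 days before visual 0–100 scoring.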

barnyardgrass [13] = assay: Test B flooded paddy test; format: in vivo, Echinochloa crus-galli; details: 1000 g ai/ha, scale 0 to 100 (0 no effect, 100 complete control)
In short: as §5

barnyardgrass [14] = assay: Test A pre-/postemergence herbicide test; format: in vivo, Echinochloa crus-galli
In short: as §1

[15] = Postemergence, 500 g ai/ha, 0 to 100 scale, 0 no effect, 100 complete control
[16] = Postemergence, 2000 g ai/ha, 0 to 100 scale, 0 no effect, 100 complete control
[17] = Preemergence, 2000 g ai/ha, visual rating, 0 to 100 scale (0 no effect, 100 complete control)
[18] = preemergence, 500 g ai/ha, visual injury, 0 to 100 scale (0 no effect, 100 complete control)
[19] = 125 g ai/ha, 0 = no effect, 100 = complete control, preemergence
[20] = 500 g ai/ha, visual rating, 0 = no effect, 100 = complete control, preemergence
[21] = 125 g ai/ha, visual rating, scale 0 (no effect) to 100 (complete control)
[22] = 500 g ai/ha, scale 0 to 100, 0 is no effect, 100 is complete control

CCn1nc(C(C)(C)C)cc1C(=O)Nc1ccnc(C(=O)N2CC=CC2)c1 [Compound 282]
Morningglory plant response rating (morningglory [1]; [15]): 15
Plant response rating, Morningglory (morningglory [1]; [16]): 15
Morningglory plant response rating (morningglory [1]; [17]): 40
Morningglory plant response rating (morningglory [1]; [18]): 10
Lambsquarters plant response rating (0 to 100 scale) (lambsquarters; [19]): 100
Plant response rating, Lambsquarters (lambsquarters; [20]): 100
Lambsquarters plant response rating (lambsquarters; [21]): 10
Lambsquarters plant response rating (lambsquarters; [22]): 60
Foxtail, Giant plant response rating (giant foxtail [2]; [15]): 20
Plant response rating, Foxtail, Giant (giant foxtail [2]; [16]): 25
Foxtail, Giant plant response rating (giant foxtail [2]; [17]): 40
Foxtail, Giant plant response rating (giant foxtail [2]; [18]): 10
Corn plant response rating (0 to 100 scale) (corn; [19]): 0
Plant response rating, Corn (corn; [20]): 0
Corn plant response rating (corn; [21]): 10
Corn plant response rating (corn; [22]): 20
Cocklebur plant response rating (0 to 100 scale) (cocklebur; [19]): 0
Plant response rating, Cocklebur (cocklebur; [20]): 0
Cocklebur plant response rating (cocklebur; [21]): 10
Cocklebur plant response rating (cocklebur; [22]): 20
Surinam Grass plant response rating (0 to 100 scale) (Surinam grass; [19]): 0
Plant response rating, Surinam Grass (Surinam grass; [20]): 20
Surinam Grass plant response rating (Surinam grass; [21]): 10
Surinam Grass plant response rating (Surinam grass; [22]): 10
Oat, Wild plant response rating (wild oat; [21]): 0
Oat, Wild plant response rating (wild oat; [22]): 20
Rice plant response rating (rice [3]): 20
Barnyardgrass plant response rating (0 to 100 scale) (barnyardgrass [4]; [19]): 30
Plant response rating, Barnyardgrass (barnyardgrass [4]; [20]): 50
Barnyardgrass plant response rating (barnyardgrass [4]; [21]): 0
Barnyardgrass plant response rating (barnyardgrass [4]; [22]): 20
Crabgrass, Large plant response rating (large crabgrass [5]; [15]): 10
Plant response rating, Crabgrass, Large (large crabgrass [5]; [16]): 25
Crabgrass, Large plant response rating (large crabgrass [5]; [17]): 65
Crabgrass, Large plant response rating (large crabgrass [5]; [18]): 40
Ducksalad plant response rating (ducksalad): 80
Morningglory plant response rating (0 to 100 scale) (morningglory [6]; [19]): 0
Plant response rating, Morningglory (morningglory [6]; [20]): 0
Morningglory plant response rating (morningglory [6]; [21]): 10
Morningglory plant response rating (morningglory [6]; [22]): 20
Velvetleaf plant response rating (velvetleaf [7]; [15]): 50
Plant response rating, Velvetleaf (velvetleaf [7]; [16]): 50
Velvetleaf plant response rating (velvetleaf [7]; [17]): 45
Velvetleaf plant response rating (velvetleaf [7]; [18]): 20
Crabgrass, Large plant response rating (0 to 100 scale) (large crabgrass [8]; [19]): 10
Plant response rating, Crabgrass, Large (large crabgrass [8]; [20]): 80
Crabgrass, Large plant response rating (large crabgrass [8]; [21]): 10
Crabgrass, Large plant response rating (large crabgrass [8]; [22]): 10
Pigweed plant response rating (0 to 100 scale) (pigweed; [19]): 100
Plant response rating, Pigweed (pigweed; [20]): 100
Pigweed plant response rating (pigweed; [21]): 20
Pigweed plant response rating (pigweed; [22]): 60
Sedge, Umbrella plant response rating [9]: 0
Wheat plant response rating (wheat; [21]): 30
Wheat plant response rating (wheat; [22]): 30
Velvetleaf plant response rating (0 to 100 scale) (velvetleaf [10]; [19]): 10
Plant response rating, Velvetleaf (velvetleaf [10]; [20]): 30
Velvetleaf plant response rating (velvetleaf [10]; [21]): 10
Velvetleaf plant response rating (velvetleaf [10]; [22]): 20
Foxtail, Giant plant response rating (0 to 100 scale) (giant foxtail [11]; [19]): 10
Plant response rating, Foxtail, Giant (giant foxtail [11]; [20]): 20
Foxtail, Giant plant response rating (giant foxtail [11]; [21]): 20
Foxtail, Giant plant response rating (giant foxtail [11]; [22]): 20
Pigweed plant response rating (redroot pigweed; [15]): 75
Plant response rating, Pigweed (redroot pigweed; [16]): 100
Pigweed plant response rating (redroot pigweed; [17]): 90
Pigweed plant response rating (redroot pigweed; [18]): 90
Blackgrass plant response rating (blackgrass; [21]): 20
Blackgrass plant response rating (blackgrass; [22]): 30
Rice plant response rating (0 to 100 scale) (rice [12]; 125 g ai/ha): 10
Plant response rating, Rice (rice [12]; 500 g ai/ha, visual rating): 40
Barnyardgrass plant response rating (barnyardgrass [13]): 20
Barnyardgrass plant response rating (barnyardgrass [14]; [15]): 40
Plant response rating, Barnyardgrass (barnyardgrass [14]; [16]): 80
Barnyardgrass plant response rating (barnyardgrass [14]; [17]): 75
Barnyardgrass plant response rating (barnyardgrass [14]; [18]): 30
